Measurements reported in patent publication US9956319B2, “Compositions useful as antibiofilm or antimicrobial agents and methods using same” (BAYLOR COLLEGE OF MEDICINE, priority 2012, dated 2018).

Tests used:
Assay type in all cases: cell-based
Proteus mirabilis = assay: Zones of inhibition of impregnated catheter segments, modified Kirby-Bauer method
Description: (§1) To evaluate the antimicrobial activity of central venous catheters treated with α-lipoic acid or its combination with gentamicin, segments of 7 French triple lumen polyurethane central venous catheters were impregnated with α-lipoic acid, gentamicin, or the combination of lipoic acid and gentamicin using the same patented method described in Example 1 with 50 mg/ml of each agent (for the final solution volume). After the impregnation process and drying, zones of inhibition were performed on one-centimeter segments according to a modified Kirby-Bauer method against MSSE, MRSE, MRSA, K. pneumoniae, E. coli, P. mirabilis, Pseudomonas aeruginosa, and Candida albicans. Each segment was half embedded in the center of a Muller-Hinton agar plate that had been previously inoculated with an individual organism. Prior to placing the catheter segments in agar, each organism was grown for 18 hours in TSB to a concentration of 0.5 McFarland (10^8 cfu/ml). A cotton swab was placed in the suspension and streaked across the surface of the Muller-Hinton agar plate to cover the entire plate. All plates were placed in a 37° C. incubator for 24 hours. Zones were measured in mm after the incubation period (Table 2).
(§2) To evaluate the antimicrobial activity of central venous catheters treated with α-lipoic acid or its combination with doxycycline, segments of 7 French triple lumen polyurethane central venous catheters were impregnated with doxycycline or the combinations of α-lipoic acid and doxycycline using the same patented method described in Example 1 (U.S. Pat. No. 6,589,591) with 50 mg/ml of each agent (for the final solution volume). After the impregnation process and drying, zones of inhibition were performed on one-centimeter segments according to a modified Kirby-Bauer method against MSSE, MRSE, MRSA, K. pneumoniae, E. coli, P. aeruginosa, P. mirabilis, and C. albicans as described in Example 2. Zones of inhibition were measured in mm after the incubation period (Table 3).
(§3) To evaluate the antimicrobial activity of central venous catheters treated with lipoamide or its combination with levofloxacin, segments of 7 French triple lumen polyurethane central venous catheters were impregnated with levofloxacin or the combinations of lipoamide and levofloxacin using the same patented method described in Example 1 (U.S. Pat. No. 6,589,591) with 100 mg/ml (final solution volume) of each agent. After the impregnation process and drying, zones of inhibition were performed on one-centimeter segments according to a modified Kirby-Bauer method against MSSE, MRSE, MRSA, vancomycin-resistant Enterococcus (VRE), K. pneumoniae, E. coli, P. aeruginosa, P. mirabilis, and C. albicans as described in Example 2. Zones of inhibition were measured in mm after the incubation period (Table 4).
as §3, with “doxycycline,” for “levofloxacin,”, “doxycycline” for “levofloxacin”, “5).” for “4).”
(§4) To evaluate the antimicrobial activity of central venous catheters treated with dihydrolipoic acid, segments of 7 French triple lumen polyurethane central venous catheters were impregnated with dihydrolipoic acid using the same patented method described in Example 1 (U.S. Pat. No. 6,589,591) with 25 mg/ml (final solution volume) of the agent. […]

Pseudomonas aeruginosa = assay: as above
Description: as §1, §2, §3
as §3, with “doxycycline,” for “levofloxacin,”, “doxycycline” for “levofloxacin”, “5).” for “4).”
as §4

[1] = tested on: methicillin-resistant Staphylococcus epidermidis (MRSE); assay: Bacterial colony counts extracted from impregnated central venous catheters after incubation in bacterial suspension; conditions: 10^5 cfu/ml suspension in TSB, 37° C., 24 hours
Description: (§5) In this example, segments of 7 French triple lumen polyurethane central venous catheters were impregnated with α-lipoic acid using the method described elsewhere (U.S. Pat. No. 6,589,591) and were subjected to zones of inhibition. Briefly, α-lipoic acid was dissolved in 88% formic acid (at a final solution concentration of 50 mg/ml). 85% ortho-Phosphoric acid and glycerol were then added to the solution at 79:8:13 (v/v/v) (formic acid:ortho-phosphoric acid:glycerol). After mixing the solution, 300 mg/ml of potassium chloride was added to the final solution and mixed.
(§6) Catheter segments were then placed in the impregnating solution at 55° C. with agitation for 1 hour in the dark. Catheter segments were then removed from the solution and dried under a fume hood overnight in the dark. Catheter segments were rinsed with deionized water the next day and let dry for another 18 hours in the dark. After the impregnation process and drying, one-centimeter segments of impregnated catheters were individually placed in 1 ml of 10^5 cfu/ml suspensions of methicillin-sensitive Staphylococcus epidermidis (MSSE), methicillin-resistant Staphylococcus epidermidis (MRSE), methicillin-resistant Staphylococcus aureus (MRSA), Klebsiella pneumoniae, Escherichia coli, or Proteus mirabilis in trypticase soy broth (TSB) at 37° C. for 24 hours. One-centimeter segments of non-impregnated catheters were also incubated individually in each bacterial suspension at 37° C. for 24 hours as controls. Catheter segments were removed from each bacterial suspension after this period, shaken to remove excess broth containing free-floating bacteria from their surfaces, placed in 1 ml of normal saline, sonicated for 5 minutes, and vortexed for 30 seconds.
(§7) Aliquots of each suspension and subsequent dilutions were cultured quantitatively.
(§8) To evaluate the anticolonization/antimicrobial activity of central venous catheters treated with lipoamide, segments of 7 French triple lumen polyurethane central venous catheters were impregnated with lipoamide using the same patented method described in Example 1 (U.S. Pat. No. 6,589,591) with 100 mg/ml (final solution volume) of the agent. After the impregnation process and drying, Catheter segments were then placed in the impregnating solution at 55° C. with agitation for 1 hour in the dark. Catheter segments were then removed from the solution and dried under a fume hood overnight in the dark. Catheter segments were rinsed with deionized water the next day and let dry for another 18 hours in the dark. After the impregnation process and drying, one-centimeter segments of impregnated catheters were individually placed in 1 ml of 10^5 cfu/ml suspensions of MRSE, MRSA, or P. aeruginosa in trypticase soy broth (TSB) at 37° C. for 24 hours. One-centimeter segments of non-impregnated catheters were also incubated individually in each bacterial suspension at 37° C. for 24 hours as controls. Catheter segments were removed from each bacterial suspension after this period, shaken to remove excess broth containing free-floating bacteria from their surfaces, placed in 1 ml of normal saline, sonicated for 5 minutes, and vortexed for 30 seconds.
(§9) To evaluate the anticolonization/antimicrobial activity of central venous catheters treated with dihydrolipoic acid, segments of 7 French triple lumen polyurethane central venous catheters were impregnated with dihydrolipoic acid using the same patented method described in Example 1 (U.S. Pat. No. 6,589,591) with 25 mg/ml (final solution volume) of the agent. After the impregnation process and drying, Catheter segments were then placed in the impregnating solution at 55° C. with agitation for 1 hour in the dark. Catheter segments were then removed from the solution and dried under a fume hood overnight in the dark. Catheter segments were rinsed with deionized water the next day and let dry for another 18 hours in the dark. […]

[2] = tested on: methicillin-resistant Staphylococcus aureus (MRSA); assay: as above; conditions: 10^5 cfu/ml suspension in TSB, 37° C., 24 hours
Description: as §5, §6, §7, §8, §9

[3] = catheter impregnated with 100 mg/ml
[4] = catheter impregnated with 50 mg/ml
[5] = catheter impregnated with 25 mg/ml

In the case of `NC(=O)CCCCC1CCSS1` (stereo not drawn) [Lipoamide, lipoamide], the zone of inhibition at 100000 µg/mL (Proteus mirabilis; catheter impregnated with 100 mg/ml of each agent) is reported as 13 mm, the zone of inhibition at 100000 µg/mL (Pseudomonas aeruginosa; Pseudomonas aeruginosa, Pseudomonas aeroginosa, catheter impregnated with 100 mg/ml of each agent) is reported as 18 mm and the “Mean bacterial colony counts extracted from catheter” value [1, 3] is reported as 0. The “Mean bacterial colony counts extracted from catheter” value [2, 3] was 0.
In the case of `O=C(O)CCCCC1CCSS1` (stereo not drawn) [Lipoic acid, 1,2-dithiolane-3-pentanoic acid], the zone of inhibition at 50000 µg/mL (Proteus mirabilis; catheter impregnated with 50 mg/ml of each agent, 37° C., 24 hours) is reported as 12 mm, the zone of inhibition at 50000 µg/mL (Pseudomonas aeruginosa; Pseudomonas aeruginosa, catheter impregnated with 50 mg/ml of each agent, 37° C., 24 hours) is reported as 5 mm and the “Bacterial colony counts extracted from central venous catheters” value [1, 4] is reported as 60. For the same compound, the “Bacterial colony counts extracted from central venous catheters” value [2, 4] was 0.
In the case of `O=C(O)CCCCC(S)CCS` (stereo not drawn) [Dihydrolipoic acid, 6,8-dimercaptooctanoic acid], the Zones of inhibition (Proteus mirabilis; catheter impregnated with 25 mg/ml of the agent) is reported as 0 mm, the Zones of inhibition (Pseudomonas aeruginosa; Pseudomonas aeroginosa, catheter impregnated with 25 mg/ml of the agent) is reported as 11 mm and the “Mean bacterial colony counts extracted from catheter” value [1, 5] is reported as 380. For the same compound, the “Mean bacterial colony counts extracted from catheter” value [2, 5] was 50.
